From patent US20140228287A1, “1-[(3-CYANO-PYRIDIN-2-YL)METHYL]-3-METHYL-7-(2-BUTYN-1-YL)-8-[3-(R)-AMINO-PIPERIDIN-1-YL]-AXANTHINE FOR THE TREATMENT OF A METABOLIC DISORDER OF A PREDOMINANTLY CARNIVOROUS NON-HUMAN ANIMAL” (BOEHRINGER INGELHEIM VETMEDICA GMBH, priority 2010, published 2014)
Structures can show the parent of a compound that is named as a salt. Where two headings read alike, the source gives them in different places.

Tests used:
plasma DPP IV = biological target: T1, plasma DPP IV (Rattus norvegicus, UniProt P14740); test: Inhibition of plasma DPP IV activity in vitro, rat plasma; assay type: biochemical
T1 construct: from tissue
Description: Studies were also conducted to assess the inhibitory effect of this compound on plasma DPP IV activity in several species.

DPP-II = DPP-II (Homo sapiens, UniProt Q9UHL4); test: In vitro selectivity, human proteases: DPP-II; assay type: biochemical; settings: up to 100 μM
Text: In order to determine the in vitro selectivity of 1-[(3-cyano-pyridin-2-yl)methyl]-3-methyl-7-(2-butyn-1-yl)-8-[3-(R)-amino-piperidin-1-yl]-xanthine, the ability of this compound to inhibit a number of human proteases was investigated as described in Thomas et al. (2008), J. Pharmacol. Exp. Ther., vol. 325, p. 175-182, chapter In vitro DPP-4 Inhibition Assay, p. 176.

plasma DPP-4 = biological target: T2, plasma DPP-4 (Rattus norvegicus, UniProt P14740); test: Inhibition of DPP-4 in rat plasma (in vitro); assay type: biochemical; settings: wistar rat plasma
T2 construct: from tissue
Description: Plasma obtained from 3 different cats and one Wistar rat as control were each incubated with a range of concentrations of 1-[(3-cyano-pyridin-2-yl)methyl]-3-methyl-7-(2-butyn-1-yl)-8-[3-(R)-amino-piperidin-1-yl]-xanthine monohydrochloride. Plasma DPP-4 activity was measured in the following way (which is also described in Eckhard et al. (2007), J. Med. Chem., Vol. 50, 6450-6453, Supporting Information).
Rat and cat plasma was used for ex vivo measurement of DDP-4 activity. Blood was collected in EDTA tubes and subjected to centrifugation. The resultant supernatant was aliquoted and frozen. […]
The assay itself was initiated by mixing 50 μl of diluted plasma with 50 μl of diluted substrate (Ala-Pro-AFC) and performed in black flat-bottom 96-well plates. The plates were then incubated at room temperature for 1 h and fluorescence was measured at excitation/emission wavelengths of 405/535 nm. Data analysis was performed by calculating the fluorescence in the presence of the test compound compared to the fluorescence of the vehicle control after subtracting the background fluorescence.
From a plot of concentration against activity (equivalent to fluorescence units) kinetic data could be collected, e.g. the half-maximal inhibitory concentration (IC50) of the tested compound in the different animals, which data are given in the following Table 2.

DPP IV = biological target: T3, DPP IV (Felis catus, UniProt Q9N2I7); test: Exploratory single dose PK/PD (1.0/5.0/10.0 mg/kg) in cats: DPP IV activity; assay type: in vivo, cat; settings: for response vs control in vivo at 1 mg/kg: 1 mg/kg single oral; for response vs control in vivo at 1 mg/kg / response vs control in vivo at 5 mg/kg / response vs control in vivo at 10 mg/kg: read-out: DPP IV activity in cat plasma; for response vs control in vivo at 5 mg/kg: 5 mg/kg single oral; for response vs control in vivo at 10 mg/kg: 10 mg/kg single oral
T3 construct: Blood samples for the determination of this compound and DPP IV activity were collected; from tissue; host or cells: plasma of domestic short hair / purpose-bred cats dosed orally
Description: The investigation of the PK/PD values was conducted in the same way as in Example 7, with the variations described below.
The aim of this study was to investigate the PK/PD behaviour of 1-[(3-cyano-pyridin-2-yl)methyl]-3-methyl-7-(2-butyn-1-yl)-8-[3-(R)-amino-piperidin-1-yl]-xanthine in the cat following a single oral administration of 0, 1, 5 and 10 mg/kg body weight (dosages were based on the free base: 1 mg 1-[(3-cyano-pyridin-2-yl)methyl]-3-methyl-7-(2-butyn-1-yl)-8-[3-(R)-amino-piperidin-1-yl]-xanthine monohydrochloride corresponds to 0.923 mg 1-[(3-cyano-pyridin-2-yl)methyl]-3-methyl-7-(2-butyn-1-yl)-8-[3-(R)-amino-piperidin-1-yl]-xanthine free base).
Twelve clinically healthy male adult domestic short hair cats with a body weight range of 3.5-4.7 kg were used in this study. All animals were treated orally once via a stomach tube. Blood samples for pharmacokinetic and pharmacodynamic (DPP IV activity) investigations were drawn at 0 h (i.e. prior to treatment), 30 min as well as 1, 2, 4, 8, 8.5, 9, 12, 24, 36, 48, 72, 84 and 96 h after treatment. Blood samples for pharmacodynamic (glucagon-like peptide 1 concentrations) investigations were drawn at −16 (i.e. prior to feeding), −15.5, −15 h as well as at 8 h (i.e. prior to feeding), 8.5 and 9 h after treatment.

T3 sequence (Q9N2I7 38-765 limits assumed): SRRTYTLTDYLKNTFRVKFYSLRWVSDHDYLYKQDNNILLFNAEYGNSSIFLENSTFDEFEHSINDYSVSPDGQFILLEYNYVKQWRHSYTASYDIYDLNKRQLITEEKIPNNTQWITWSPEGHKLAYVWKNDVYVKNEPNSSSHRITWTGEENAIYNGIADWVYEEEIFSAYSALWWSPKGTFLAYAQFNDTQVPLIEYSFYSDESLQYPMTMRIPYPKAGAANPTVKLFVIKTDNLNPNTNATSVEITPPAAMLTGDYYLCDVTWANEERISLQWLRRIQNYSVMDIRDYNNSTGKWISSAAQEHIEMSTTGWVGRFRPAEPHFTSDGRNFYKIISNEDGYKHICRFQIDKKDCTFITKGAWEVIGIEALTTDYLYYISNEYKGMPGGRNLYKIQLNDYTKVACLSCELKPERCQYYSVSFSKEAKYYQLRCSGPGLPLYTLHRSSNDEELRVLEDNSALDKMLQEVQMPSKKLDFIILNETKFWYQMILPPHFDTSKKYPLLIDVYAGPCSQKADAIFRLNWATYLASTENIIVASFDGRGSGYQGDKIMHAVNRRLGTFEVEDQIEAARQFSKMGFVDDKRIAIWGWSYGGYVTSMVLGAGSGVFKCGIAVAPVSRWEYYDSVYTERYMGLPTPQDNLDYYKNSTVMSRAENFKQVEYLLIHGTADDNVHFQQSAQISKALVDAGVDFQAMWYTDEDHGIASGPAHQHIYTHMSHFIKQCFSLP
T2 sequence (P14740 37-767 limits assumed): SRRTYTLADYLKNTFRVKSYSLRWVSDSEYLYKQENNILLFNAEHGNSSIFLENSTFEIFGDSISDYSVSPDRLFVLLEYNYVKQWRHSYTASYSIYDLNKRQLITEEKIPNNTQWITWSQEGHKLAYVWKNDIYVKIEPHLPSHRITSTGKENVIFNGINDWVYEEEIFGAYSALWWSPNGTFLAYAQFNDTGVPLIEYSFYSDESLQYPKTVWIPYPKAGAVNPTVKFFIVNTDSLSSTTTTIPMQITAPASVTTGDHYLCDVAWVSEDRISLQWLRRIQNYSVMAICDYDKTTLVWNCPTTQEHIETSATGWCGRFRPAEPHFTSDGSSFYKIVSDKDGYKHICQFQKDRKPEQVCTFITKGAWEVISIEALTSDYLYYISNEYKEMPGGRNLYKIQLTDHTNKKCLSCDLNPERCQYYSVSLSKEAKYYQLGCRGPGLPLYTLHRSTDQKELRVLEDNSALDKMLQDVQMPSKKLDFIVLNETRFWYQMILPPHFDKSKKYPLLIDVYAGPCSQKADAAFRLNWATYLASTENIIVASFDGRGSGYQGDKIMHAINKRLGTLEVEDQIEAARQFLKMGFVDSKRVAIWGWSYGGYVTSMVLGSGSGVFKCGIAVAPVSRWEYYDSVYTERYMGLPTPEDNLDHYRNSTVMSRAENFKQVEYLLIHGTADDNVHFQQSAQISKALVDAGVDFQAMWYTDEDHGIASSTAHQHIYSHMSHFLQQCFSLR
T1 sequence (P14740 37-767 limits assumed): as above

In the case of `CC#CCn1c(N2CCC[C@@H](N)C2)nc2c1c(=O)n(Cc1ncccc1C#N)c(=O)n2C` [1-[(3-cyano-pyridin-2-yl)methyl]-3-methyl-7-(2-butyn-1-yl)-8-[3-(R)-amino-piperidin-1-yl]-xanthine monohydrochloride], the IC50 (plasma DPP IV) is reported as ~0.8 nM, the “inhibitory effect on DPP-II” value (DPP-II) is reported as “did not exert any inhibitory effect” and the IC50 (plasma DPP-4) is reported as 1.95 nM. For the same compound, the hillslope (plasma DPP-4) was −0.8462, the “time up to which DPP IV values remained ≦20%” value (DPP IV; 1.0 mg/kg single oral) was 12 h and the response vs control in vivo at 1 mg/kg (DPP IV; 0.5 h) was 8%. The response vs control in vivo at 1 mg/kg (DPP IV; 1 h) was 7%, the response vs control in vivo at 1 mg/kg (DPP IV; 2 h) was 7% and the response vs control in vivo at 1 mg/kg (DPP IV; 4 h) was 7.3%. The response vs control in vivo at 1 mg/kg (DPP IV; 8 h) was 9.3%, the response vs control in vivo at 1 mg/kg (DPP IV; 8.5 h) was 9.7% and the response vs control in vivo at 1 mg/kg (DPP IV; 9 h) was 9.7%. The response vs control in vivo at 1 mg/kg (DPP IV; 12 h) was 12.3%, the response vs control in vivo at 1 mg/kg (DPP IV; 24 h) was 22.3% and the response vs control in vivo at 1 mg/kg (DPP IV; 36 h) was 43%. The response vs control in vivo at 1 mg/kg (DPP IV; 48 h) was 59%, the response vs control in vivo at 1 mg/kg (DPP IV; 72 h) was 74.7% and the response vs control in vivo at 1 mg/kg (DPP IV; 84 h) was 84.3%. The response vs control in vivo at 1 mg/kg (DPP IV; 96 h) was 81.7%, the “time up to which DPP IV values remained ≦20%” value (DPP IV; 5.0 mg/kg single oral) was 24 h and the response vs control in vivo at 5 mg/kg (DPP IV; 0.5 h) was 7.7%. The response vs control in vivo at 5 mg/kg (DPP IV; 1 h) was 7%, the response vs control in vivo at 5 mg/kg (DPP IV; 2 h) was 7% and the response vs control in vivo at 5 mg/kg (DPP IV; 4 h) was 7.7%. For the same compound, the response vs control in vivo at 5 mg/kg (DPP IV; 8 h) was 8.3%, the response vs control in vivo at 5 mg/kg (DPP IV; 8.5 h) was 8.7% and the response vs control in vivo at 5 mg/kg (DPP IV; 9 h) was 9%. For the same compound, the response vs control in vivo at 5 mg/kg (DPP IV; 12 h) was 9.3%, the response vs control in vivo at 5 mg/kg (DPP IV; 24 h) was 14.7% and the response vs control in vivo at 5 mg/kg (DPP IV; 36 h) was 25.7%. It also gave a response vs control in vivo at 5 mg/kg (DPP IV; 48 h) of 42.7%, a response vs control in vivo at 5 mg/kg (DPP IV; 72 h) of 72.3% and a response vs control in vivo at 5 mg/kg (DPP IV; 84 h) of 90%. The response vs control in vivo at 5 mg/kg (DPP IV; 96 h) was 87.7%, the “time up to which DPP IV values remained ≦20%” value (DPP IV; 10.0 mg/kg single oral) was 48 h and the response vs control in vivo at 10 mg/kg (DPP IV; 0.5 h) was 8%. It also gave a response vs control in vivo at 10 mg/kg (DPP IV; 1 h) of 7.3%, a response vs control in vivo at 10 mg/kg (DPP IV; 2 h) of 7.3% and a response vs control in vivo at 10 mg/kg (DPP IV; 4 h) of 9%. It also gave a response vs control in vivo at 10 mg/kg (DPP IV; 8 h) of 9%, a response vs control in vivo at 10 mg/kg (DPP IV; 8.5 h) of 9.7% and a response vs control in vivo at 10 mg/kg (DPP IV; 9 h) of 9.3%. The response vs control in vivo at 10 mg/kg (DPP IV; 12 h) was 9.7%, the response vs control in vivo at 10 mg/kg (DPP IV; 24 h) was 12.3% and the response vs control in vivo at 10 mg/kg (DPP IV; 36 h) was 16.3%. It also gave a response vs control in vivo at 10 mg/kg (DPP IV; 48 h) of 20%, a response vs control in vivo at 10 mg/kg (DPP IV; 72 h) of 37% and a response vs control in vivo at 10 mg/kg (DPP IV; 84 h) of 58.3%. The response vs control in vivo at 10 mg/kg (DPP IV; 96 h) was 67.3%, the “minimum mean DPP IV values” (DPP IV; all three groups (1.0, 5.0, 10.0 mg/kg single oral)) was 7% and the “plasma concentration at which maximum DPP-IV inhibition was reached” value (DPP IV; cat, PK-PD correlation) was 15 to 30 nmol/L.
